44 compounds from US8466199B2, “Allyloxy and alkyloxy benzoic acid delivery agents” (Emisphere Technologies, Inc., priority 2007, dated 2013) can be followed below.

The subject of test [1] is fasted male Sprague-Dawley rats. Put plainly: Oral delivery of insulin to male Sprague-Dawley rats (blood glucose by glucometer, compared to vehicle control). The conditions noted are these: oral gavage, 200 mg/kg delivery agent + 0.5 mg/kg insulin, C minimum over 0-60 min, average of experiments. Type of test: in vivo, rat. The protocol: Insulin stock solution (15 mg/ml) (Human zinc insulin, Calbiochem-Novabiochem Corp., La Jolla, Calif.) was prepared with deionized water. Oral dosing compositions containing 200 mg/kg of a delivery agent compound of the present invention and 0.5 mg/kg of insulin in an aqueous solution were prepared for the compounds prepared in Examples 2-24.
(§1) One ml of the dosing solution was administered to fasted male Sprague-Dawley rats by oral gavage with an average weight of about 225-250 grams Blood glucose levels were then determined by glucometer (One Touch Ultra®, LifeScan, Inc.) and compared to vehicle control (1 ml/kg of water). Samples were collected prior to dosing (time 0) and at 15, 30, 45 and 60 minutes after dosing. The % glucose reduction is shown below in Table 1. The values correspond to the C minimum, and are an average % reduction with respect to the number of times the experiment was run for each delivery agent.
The solutions were administered to fasted male Sprague-Dawley rats and the % glucose reduction was determined in the same manner as described above.
as §1, with “Insulin stock solution (15 mg/ml) (Human zinc insulin, Calbiochem-Novabiochem Corp., La Jolla, Calif.) was prepared with deionized water. Oral dosing compositions containing 200 mg/kg of a delivery agent compound of the present invention and 0.5 mg/kg of insulin in an aqueous solution were prepared for the compounds prepared in Examples 27-34. One ml” for “One ml”, “about 225-250 grams. Blood glucose” for “about 225-250 grams Blood glucose”, “in Table 3. The values” for “in Table 1. The values”
as §1, with “Insulin stock solution (15 mg/ml) (Human zinc insulin, Calbiochem-Novabiochem Corp., La Jolla, Calif.) was prepared with deionized water. Oral dosing compositions containing 200 mg/kg of a delivery agent compound of the present invention and 0.5 mg/kg of insulin in an aqueous solution were prepared for the compounds prepared in Examples 37-49. One ml” for “One ml”, “about 225-250 grams. Blood glucose” for “about 225-250 grams Blood glucose”, “in Table 5. The values” for “in Table 1. The values”

For test [2] the test system is unchanged. Described as above. It counts as in vivo, rat.
[3] abbreviates: Table 2, Insulin Dose 0 mg/kg, Carrier Dose 200 mg/kg.
The mark [4] stands for this setting: Table 2, Insulin Dose 0.25 mg/kg, Carrier Dose 200 mg/kg.

Regarding `CC(C)OCc1ccc(C(=O)O)cc1` [Compound 40, 4-Isopropoxymethyl-benzoic acid], the “Glucose (Absolute change from Control)” value in test [1] (Table 5) is on record as −31.9%.
As to `C=CCOc1cc(OCCO)ccc1C(=O)O` [Compound 16, 2-Allyloxy-4-(2-hydroxy-ethoxy)-benzoic acid], in test [1] (Table 1, aqueous solution), the “Glucose (Absolute change from Control)” value is on record as −4.6%.
Take `C=C(C)COCc1cccc(C(=O)O)c1` [Compound 37, 3-(2-Methyl-allyloxymethyl)-benzoic acid]: the “Glucose (Absolute change from Control)” value in test [1] (Table 5) is −8.4%.
On the same count and under the same terms, as for `C=CC(C)OCc1ccc(C(=O)O)cc1` (centres unmarked) [Compound 34, 4-(1-Methyl-allyloxymethyl)-benzoic acid], the figure is −16.6%; as for `C=CCCOCc1cccc(C(=O)O)c1` [Compound 36, 3-But-3-enyloxymethyl-benzoic acid], −20.7%; as for `CCCOCc1ccc(C(=O)O)cc1` [Compound 41, 4-Propoxymethyl-benzoic acid], −19.2%.
As for `C=CCCOCc1ccc(C(=O)O)cc1` [Compound 33, 4-But-3-enyloxymethyl-benzoic acid], in test [1] (Table 5), the “Glucose (Absolute change from Control)” value is −38.5%.
As for `CC(C)COc1ccc(C(=O)O)cc1` [Compound 30, 4-Isobutoxy-benzoic acid], the “Glucose (Absolute change from Control)” value in test [1] (Table 3) is reported as −29.8%.
With `CCCCOc1ccccc1C(=O)O` [Compound 29, 2-Butoxy-benzoic acid], in test [1] (Table 3), the “Glucose (Absolute change from Control)” value is reported as −34.9%.
Take `C=CCOc1ccccc1C(=O)O` [Compound 1, 2-Allyloxy-benzoic acid]: the “Glucose (Absolute change from Control)” value is reported as −35.1% in test [1] (Table 1, aqueous solution); −12.5% in test [2] (setting [3]); −17.9% in test [2] (Table 2, Insulin Dose 0.25 mg/kg, Carrier Dose 100 mg/kg); 3.0% in test [2] (setting [4]).
For the compound `CC(C)OCc1cccc(C(=O)O)c1` [Compound 43, 3-Isopropoxymethyl-benzoic acid], the “Glucose (Absolute change from Control)” value in test [1] (Table 5) is −29.3%.
`C=CCOc1ccc(C(C)=O)cc1C(=O)O` [Compound 17, 5-Acetyl-2-allyloxy-benzoic acid]: the “Glucose (Absolute change from Control)” value in test [1] (Table 1, aqueous solution) is 0.6%.
Still for that read-out and setting: as for `C=C(C)COc1ccc(C(=O)O)cc1` [Compound 20, 4-(2-Methyl-allyloxy)-benzoic acid], the figure is −51.1%.
Turning to `CCCCOc1ccc(C(=O)O)cc1` [Compound 28, 4-Butoxy-benzoic acid], the “Glucose (Absolute change from Control)” value in test [1] (Table 3) is listed as −22.3%.
Same read-out and setting: as for `CCCOc1ccc(C(=O)O)cc1` [Compound 25, 4-Propoxy-benzoic acid], the figure is −25.5%; as for `CC(C)COc1cccc(C(=O)O)c1` [Compound 31, 3-Isobutoxy-benzoic acid], −9.5%.
For the compound `C=CCOc1ccc(OC)cc1C(=O)O` [Compound 10, 2-Allyloxy-5-methoxy-benzoic acid], in test [1] (Table 1, aqueous solution), the “Glucose (Absolute change from Control)” value was −27.2%.
In the case of `CCCOCc1cccc(C(=O)O)c1` [Compound 44, 3-Propoxymethyl-benzoic acid], the “Glucose (Absolute change from Control)” value in test [1] (Table 5) is on record as −20.8%.
Regarding `C=CCOc1ccc(C(=O)O)cc1` [Compound 2, 4-Allyloxy-benzoic acid], the “Glucose (Absolute change from Control)” value in test [1] (Table 1, aqueous solution) is recorded as −42.4%.
Turning to `CCCCOc1cccc(C(=O)O)c1` [Compound 27, 3-Butoxy-benzoic acid], the “Glucose (Absolute change from Control)” value in test [1] (Table 3) is −23.9%.
In the case of `C=CCOc1cc(OC)ccc1C(=O)O` [Compound 11, 2-Allyloxy-4-methoxy-benzoic acid], the “Glucose (Absolute change from Control)” value in test [1] (Table 1, aqueous solution) is −24.0%.
Same read-out and setting: as for `C=CCCOc1ccccc1C(=O)O` [Compound 3, 2-But-3-enyloxy-benzoic acid], the figure is −25.5%.
Still for that read-out and setting: the figure for `C=C(C)COc1cc(C(=O)O)ccc1OC` [Compound 23, 4-Methoxy-3-(2-methyl-allyloxy)-benzoic acid] is −8.4%.
With `C=CCOCc1ccc(C(=O)O)cc1` [Compound 32, 4-Allyloxymethyl-benzoic acid], the “Glucose (Absolute change from Control)” value in test [1] (Table 5) is −19.5%.
For `C=C(C)COc1cccc(C(=O)O)c1` [Compound 21, 3-(2-Methyl-allyloxy)-benzoic acid], the “Glucose (Absolute change from Control)” value in test [1] (Table 1, aqueous solution) was −27.4%.
On to `C=CCCOc1cccc(C(=O)O)c1` [Compound 5, 3-But-3-enyloxy-benzoic acid], for which the “Glucose (Absolute change from Control)” value in test [1] (Table 1, aqueous solution) is given as −40.8%; in test [2] (setting [3]) it was −6.3%; in test [2] (setting [4]), −5.4%.
For `CCOCc1ccc(C(=O)O)cc1` [Compound 39, 4-Ethoxymethyl-benzoic acid], the “Glucose (Absolute change from Control)” value in test [1] (Table 5) is −1.9%.
For the compound `C=CCOc1cccc(C(=O)O)c1` [Compound 6, 3-Allyloxy-benzoic acid], the “Glucose (Absolute change from Control)” value in test [1] (Table 1, aqueous solution) was −42.8%; in test [2] (setting [3]), −10.7%; in test [2] (setting [4]), −18.2%.
For `C=CCOc1ccc(Br)cc1C(=O)O` [Compound 18, 2-Allyloxy-5-bromo-benzoic acid], in test [1] (Table 1, aqueous solution), the “Glucose (Absolute change from Control)” value is −5.0%.
On the same count and under the same terms, the figure for `C=CCOc1cc(C(=O)O)ccc1OC` [Compound 22, 3-Allyloxy-4-methoxy-benzoic acid] is −10.2%.
Turning to `CCOCc1cccc(C(=O)O)c1` [Compound 42, 3-Ethoxymethyl-benzoic acid], in test [1] (Table 5), the “Glucose (Absolute change from Control)” value is −11.3%.
On to `CC(C)=CCOc1cccc(C(=O)O)c1` [Compound 8, 3-(3-Methyl-but-2-enyloxy)-benzoic acid], for which the “Glucose (Absolute change from Control)” value in test [1] (Table 1, aqueous solution) is reported as −31.6%.
Consider `C=CCCOc1ccc(C(=O)O)cc1` [Compound 4, 4-But-3-enyloxy-benzoic acid], for which the “Glucose (Absolute change from Control)” value in test [1] (Table 1, aqueous solution) is −41.6%; in test [2] (setting [3]) it was 8.8%; in test [2] (setting [4]), −11.4%.
In the case of `CC(C)=CCOc1ccc(C(=O)O)cc1` [Compound 9, 4-(3-Methyl-but-2-enyloxy)-benzoic acid], the “Glucose (Absolute change from Control)” value in test [1] (Table 1, aqueous solution) was −27.8%.
Consider `CC(C)=CCOc1ccccc1C(=O)O` [Compound 7, 2-(3-Methyl-but-2-enyloxy)-benzoic acid], for which the “Glucose (Absolute change from Control)” value in test [1] (Table 1, aqueous solution) was −38.8%.
For the compound `C=CCOc1cccc(C)c1C(=O)O` [Compound 14, 2-Allyloxy-6-methyl-benzoic acid], the “Glucose (Absolute change from Control)” value in test [1] (Table 1, aqueous solution) is −14.4%.
In the case of `CCCOc1ccccc1C(=O)O` [Compound 26, 2-Propoxy-benzoic acid], the “Glucose (Absolute change from Control)” value in test [1] (Table 3) is reported as −14.2%.
Turning to `C=CCOc1ccc(Cl)cc1C(=O)O` [Compound 19, 2-Allyloxy-5-chloro-benzoic acid], in test [1] (Table 1, aqueous solution), the “Glucose (Absolute change from Control)” value is given as −21.5%.
On to `CCCOc1cccc(C(=O)O)c1` [Compound 24, 3-Propoxy-benzoic acid], for which the “Glucose (Absolute change from Control)” value in test [1] (Table 3) is reported as −15.2%.
`C=CCOCc1cccc(C(=O)O)c1` [Compound 38, 3-Allyloxymethyl-benzoic acid]: the “Glucose (Absolute change from Control)” value in test [1] (Table 5) is given as −13.1%.
In the case of `C=CCOc1c(OC)cccc1C(=O)O` [Compound 12, 2-Allyloxy-3-methoxy-benzoic acid], in test [1] (Table 1, aqueous solution), the “Glucose (Absolute change from Control)” value is on record as −13.5%.
Consider `C=C(C)COCc1ccc(C(=O)O)cc1` [Compound 35, 4-(2-Methyl-allyloxymethyl)-benzoic acid], for which, in test [1] (Table 5), the “Glucose (Absolute change from Control)” value is on record as −16.0%.
As for `C=CCOc1ccc(C)cc1C(=O)O` [Compound 13, 2-Allyloxy-5-methyl-benzoic acid], the “Glucose (Absolute change from Control)” value in test [1] (Table 1, aqueous solution) is given as −30.7%.
For `C=C(C)COc1ccccc1C(=O)O` [Compound 15, 2-(2-Methyl-allyloxy)-benzoic acid], the “Glucose (Absolute change from Control)” value in test [1] (Table 1, aqueous solution) is listed as −37.4%.
